In ChEMBL document CHEMBL6109114, “Design, synthesis, and biological evaluation of 4-(2-fluorophenoxy)pyridine derivatives as novel FLT3-ITD inhibitors” (Eur J Med Chem, 2025):
Active and inactive are the calls of the source. The rule behind the calls is not given here.

Tests used:
[1] = tested on: BaF3; experiment: Antiproliferative activity against mouse BaF3 cells harbouring FLT3-ITD assessed as inhibition of cell growth measured after 3 days by celltiter-glo luminescent cell viability assay; format: functional, cell-based; details: BaF3, 72 h
[2] = tested on: A549; experiment: Antiproliferative activity against non-FLT3 expressing human A549 cells assessed as inhibition of cell growth measured after 3 days by celltiter-glo luminescent cell viability assay; format: functional, cell-based; details: A549, 72 h
[3] = Antiproliferative activity against human PBMC cells assessed as inhibition of cell growth measured after 3 days by celltiter-glo luminescent cell viability assay; format: toxicity, cell-based
[4] = target: Cyclin-dependent kinase 2/cyclin A (Homo sapiens) (UniProt P24941+P20248+P78396); experiment: Inhibition of human CDK2/CyclinA at 1 uM by Eurofins-DiscoverX assay; format: protein-complex assay
[5] = target: Receptor-type tyrosine-protein kinase FLT3 (Homo sapiens, UniProt P36888, ITD); experiment: Inhibition of FLT3 ITD mutant (unknown origin) using Fluorescein-Poly GT as substrate preincubated for 10 mins followed by substrate addition and measured after 30 mins in presence of ATP by mobility shift assay
Receptor-type tyrosine-protein kinase FLT3 (Homo sapiens, UniProt P36888, ITD), sequence (P36888 whole entry, looked up, stated change not applied): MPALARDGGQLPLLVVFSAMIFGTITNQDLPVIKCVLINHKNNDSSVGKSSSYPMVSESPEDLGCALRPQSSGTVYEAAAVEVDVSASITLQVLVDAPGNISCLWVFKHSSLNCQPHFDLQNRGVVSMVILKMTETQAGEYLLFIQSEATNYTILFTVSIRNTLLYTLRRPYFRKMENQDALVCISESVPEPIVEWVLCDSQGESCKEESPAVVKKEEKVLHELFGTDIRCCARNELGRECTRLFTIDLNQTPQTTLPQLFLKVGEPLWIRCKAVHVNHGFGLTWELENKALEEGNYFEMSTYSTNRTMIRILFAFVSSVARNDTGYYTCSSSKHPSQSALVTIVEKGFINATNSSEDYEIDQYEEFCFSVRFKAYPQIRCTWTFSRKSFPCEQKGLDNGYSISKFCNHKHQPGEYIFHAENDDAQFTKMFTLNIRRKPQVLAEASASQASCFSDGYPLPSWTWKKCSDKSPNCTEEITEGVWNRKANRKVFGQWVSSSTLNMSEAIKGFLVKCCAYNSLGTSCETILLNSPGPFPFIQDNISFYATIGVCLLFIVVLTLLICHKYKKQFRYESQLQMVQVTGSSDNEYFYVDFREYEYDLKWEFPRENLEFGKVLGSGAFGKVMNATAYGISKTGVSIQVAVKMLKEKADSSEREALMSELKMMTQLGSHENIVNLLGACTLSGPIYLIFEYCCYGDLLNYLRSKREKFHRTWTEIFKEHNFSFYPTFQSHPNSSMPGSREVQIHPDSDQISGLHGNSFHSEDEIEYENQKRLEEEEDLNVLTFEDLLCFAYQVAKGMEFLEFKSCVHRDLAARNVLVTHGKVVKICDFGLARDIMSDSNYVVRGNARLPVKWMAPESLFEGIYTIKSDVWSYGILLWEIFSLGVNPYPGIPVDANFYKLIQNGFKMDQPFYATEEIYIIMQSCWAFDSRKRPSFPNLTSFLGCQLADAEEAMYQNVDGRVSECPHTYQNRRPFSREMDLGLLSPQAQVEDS

[6] = target: Receptor-type tyrosine-protein kinase FLT3 (Homo sapiens, UniProt P36888); experiment: Inhibition of FLT3 (unknown origin) using Fluorescein-Poly GT as substrate preincubated for 10 mins followed by substrate addition and measured after 30 mins in presence of ATP by mobility shift assay
Receptor-type tyrosine-protein kinase FLT3 (Homo sapiens, UniProt P36888), sequence (P36888 whole entry): as the sequence (P36888 whole entry, looked up, stated change not applied) above

[7] = target: Vascular endothelial growth factor receptor 3 (Homo sapiens, UniProt P35916); experiment: Inhibition of FLT4 (unknown origin) using Fluorescein-Poly GT as substrate preincubated for 10 mins followed by substrate addition and measured after 30 mins in presence of ATP by mobility shift assay
Vascular endothelial growth factor receptor 3, sequence (P35916 whole entry): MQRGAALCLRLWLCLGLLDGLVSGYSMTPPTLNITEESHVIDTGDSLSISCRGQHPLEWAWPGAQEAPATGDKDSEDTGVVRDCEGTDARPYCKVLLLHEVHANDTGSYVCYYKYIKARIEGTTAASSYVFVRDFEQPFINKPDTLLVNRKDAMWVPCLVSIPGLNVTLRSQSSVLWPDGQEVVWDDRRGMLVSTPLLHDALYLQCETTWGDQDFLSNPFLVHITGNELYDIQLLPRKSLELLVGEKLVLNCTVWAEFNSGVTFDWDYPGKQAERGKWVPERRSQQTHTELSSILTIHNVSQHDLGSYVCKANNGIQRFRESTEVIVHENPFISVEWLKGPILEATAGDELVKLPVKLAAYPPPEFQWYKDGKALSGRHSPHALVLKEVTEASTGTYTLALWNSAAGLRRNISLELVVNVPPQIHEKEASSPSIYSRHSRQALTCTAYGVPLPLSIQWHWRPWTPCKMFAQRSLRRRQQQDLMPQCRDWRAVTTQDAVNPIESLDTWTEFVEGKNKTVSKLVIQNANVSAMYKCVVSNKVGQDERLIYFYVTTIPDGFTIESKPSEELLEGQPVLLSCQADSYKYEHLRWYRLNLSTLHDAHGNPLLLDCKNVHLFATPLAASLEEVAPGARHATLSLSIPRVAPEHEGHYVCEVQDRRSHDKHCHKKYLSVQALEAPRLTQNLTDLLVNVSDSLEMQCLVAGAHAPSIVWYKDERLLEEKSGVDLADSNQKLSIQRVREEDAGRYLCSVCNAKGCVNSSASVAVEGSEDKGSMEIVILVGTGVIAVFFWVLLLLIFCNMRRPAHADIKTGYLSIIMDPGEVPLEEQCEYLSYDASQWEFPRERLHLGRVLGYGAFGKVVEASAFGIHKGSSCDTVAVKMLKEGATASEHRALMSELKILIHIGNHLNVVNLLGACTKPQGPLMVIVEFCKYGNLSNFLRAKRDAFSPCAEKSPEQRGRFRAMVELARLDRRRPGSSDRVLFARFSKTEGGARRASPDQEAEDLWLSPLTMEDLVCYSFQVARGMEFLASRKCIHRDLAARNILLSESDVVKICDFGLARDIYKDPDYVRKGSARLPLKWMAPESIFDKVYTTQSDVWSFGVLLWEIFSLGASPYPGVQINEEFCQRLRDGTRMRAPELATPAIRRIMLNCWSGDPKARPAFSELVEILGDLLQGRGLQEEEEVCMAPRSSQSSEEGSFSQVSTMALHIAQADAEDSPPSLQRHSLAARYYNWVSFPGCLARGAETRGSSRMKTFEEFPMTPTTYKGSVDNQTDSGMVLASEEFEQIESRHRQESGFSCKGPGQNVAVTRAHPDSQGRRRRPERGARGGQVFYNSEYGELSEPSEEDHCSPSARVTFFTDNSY

[8] = tested on: BaF3; experiment: Antiproliferative activity against mouse BaF3 cells harbouring FLT3-ITD-F691L mutant assessed as inhibition of cell growth measured after 3 days by celltiter-glo luminescent cell viability assay; format: functional, cell-based; details: BaF3, 72 h
[9] = target: Receptor-type tyrosine-protein kinase FLT3 (Homo sapiens) (UniProt P36888); experiment: Inhibition of FLT3 phosphorylation in human MOLM-13 cells measured after 2 hrs by Western blot analysis; format: cell-based; details: dose 0.01-1 µM
Receptor-type tyrosine-protein kinase FLT3 (Homo sapiens), sequence (P36888 whole entry): as the sequence (P36888 whole entry, looked up, stated change not applied) above

[10] = tested on: MOLM-13; experiment: Inhibition of STAT5 phosphorylation in human MOLM-13 cells at 0.2 uM measured after 2 hrs by Western blot analysis relative to control; format: cell-based
[11] = tested on: MOLM-13; experiment: Induction of apoptosis in human MOLM-13 cells assessed as early apoptotic cells at 1 uM incubated for 48 hrs by Annexin V-FITC/PI staining based flow cytometry analysis (reference value: 4.93%); format: functional
[12] = tested on: MOLM-13; experiment: Induction of apoptosis in human MOLM-13 cells assessed as necrotic cells at 0.3 uM incubated for 48 hrs by Annexin V-FITC/PI staining based flow cytometry analysis (reference value: 0.077%); format: functional
[13] = tested on: MOLM-13; experiment: Induction of apoptosis in human MOLM-13 cells assessed as necrotic cells at 1 uM incubated for 48 hrs by Annexin V-FITC/PI staining based flow cytometry analysis (reference value: 0.077%); format: functional
[14] = tested on: MOLM-13; experiment: Induction of cell cycle arrest in human MOLM-13 cells assessed as accumulation of cells at S phase at 0.3 uM incubated for 48 hrs (reference value: 41.6%); format: functional
[15] = tested on: MOLM-13; experiment: Induction of cell cycle arrest in human MOLM-13 cells assessed as accumulation of cells at S phase at 1 uM incubated for 48 hrs (reference value: 41.6%); format: functional
[16] = tested on: MOLM-13; experiment: Induction of cell cycle arrest in human MOLM-13 cells assessed as accumulation of cells at G2 phase at 0.1 uM incubated for 48 hrs (reference value: […]); format: functional
[17] = tested on: MOLM-13; experiment: Induction of apoptosis in human MOLM-13 cells incubated for 48 hrs by Annexin V-FITC/PI staining based flow cytometry analysis; format: functional, cell-based; details: dose 0.1-1 µM
[18] = tested on: MOLM-13; experiment: Induction of cell cycle arrest in human MOLM-13 cells incubated for 48 hrs; format: functional, cell-based; details: dose 0.1-1 µM
[19] = Metabolic stability in Sprague-Dawley rat liver microsomes assessed as parent compound remaining at 1 uM measured after 60 mins by LC-MS/MS analysis; format: ADME, Microsome; details: read-out: Stability
[20] = Metabolic stability in human liver microsomes assessed as intrinsic clearance at 1 uM measured up to 60 mins in presence of NADPH regenerating system by LC-MS/MS analysis; format: ADME, Microsome; details: read-out: CLH
[21] = Metabolic stability in human liver microsomes assessed as parent compound remaining at 1 uM measured after 60 mins in presence of NADPH regenerating system by LC-MS/MS analysis; format: ADME, Microsome; details: read-out: Stability
[22] = AUC (0 to t) in mouse at 5 mg/kg, iv; format: ADME, organism-based; details: in vivo
[23] = AUC (0 to infinity) in mouse at 10 mg/kg, po; format: ADME, organism-based; details: in vivo
[24] = MRT (0 to t) in mouse at 10 mg/kg, po; format: ADME, organism-based; details: in vivo
[25] = Oral bioavailability in mouse at 10 mg/kg; format: ADME, organism-based; details: in vivo

- IC50 [1]: 190 nM
- IC50 [2]: > 30000 nM
- inhibition [4]: inactive
- IC50 [5]: 153 nM
- IC50 [6]: 475 nM
- IC50 [7]: 166 nM
- IC50 [8]: 4900 nM
- inhibition [9]: Dose-dependent-effect
- remaining at 1 h, 1 µM [19]: 108%
- microsomal CLint at 1 µM [20]: 12.7 µL/min/mg
- remaining at 1 h, 1 µM [21]: 66.3%
- AUC(0-t) [22]: 2030 ng·h/mL
- AUC(0-inf) [23]: 1430 ng·h/mL
- MRT last [24]: 3.37 h
- bioavailability [25]: 32.4%
SMILES: Cc1cc(=O)n(-c2cc(Cl)ccc2F)nc1C(=O)Nc1ccc(Oc2ccnc(NC(=O)N3CC(O)C3)c2)c(F)c1
- IC50 at 3 days [3]: > 30000 nM
- inhibition [10]: 100%
- Activity [11]: 29.6%
- Activity [12]: 0.068%
- Activity [13]: 0.74%
- Activity [14]: 17.1%
- Activity [15]: 21.2%
- Activity [16]: 9.39%
- Activity [17]: Dose-dependent-effect
- Activity [18]: Dose-dependent-effect
